Measured values: patent US4400510A, “A-32256 Phenazine antibiotic” (Eli Lilly and Company, priority 1981, dated 1983)
Converted amounts (≈) assume the structure as drawn. Read-outs that look alike come from different tables or passages of the source.

How the values were obtained:
[1] = system: Peptococcus asaccharolyticus; test: agar-dilution MIC vs. anaerobic bacteria; assay type: cell-based; conditions: strain 1302; Table 6
[2] = system: Peptostreptococcus intermedius; test: agar-dilution MIC vs. anaerobic bacteria; assay type: cell-based; conditions: strain 1264, Table 6
[3] = system: B. corrodens; test: agar-dilution MIC vs. Bacteroides species; assay type: cell-based; conditions: B. corrodens 1874; 24 hours; Table 8
Protocol: (§1) The agar-dilution procedure described by the International Collaborative Study (ICS) group was used to determine MIC values.
(§2) The MIC values were determined by the agar-dilution method, the endpoints being read 24 hours after incubation, and are recorded in Table 8, which follows.

[4] = system: B. thetaiotaomicron; test: agar-dilution MIC vs. Bacteroides species; assay type: cell-based; conditions: 24 hours, Table 8
Protocol: as §1, §2

[5] = system: B. vulgatis; test: agar-dilution MIC vs. Bacteroides species; assay type: cell-based; conditions: B. vulgatis 1563; 24 hours; Table 8
Protocol: as §1, §2

[6] = system: Bacteroides fragilis; test: agar-dilution MIC vs. Bacteroides species; assay type: cell-based; conditions: 24 hours, Table 8
Protocol: as §1, §2

[7] = system: Peptococcus asaccharolyticus; test: agar-dilution MIC vs. Peptococcus and Peptostreptococcus species; assay type: cell-based; conditions: Table 9
Protocol: as §1
(§3) The MIC values were determined by the agar-dilution method, and are recorded in Table 9, which follows.

[8] = system: Peptococcus constellatus; test: as above; assay type: cell-based; conditions: Pc. constellatus 1468; Table 9
Protocol: as §1, §3

[9] = system: Peptococcus magnus; test: as above; assay type: cell-based; conditions: Table 9
Protocol: as §1, §3

[10] = system: Staphylococcus aureus; test: disc-plate screening procedure, zone of inhibition
[11] = system: Streptococcus pyogenes; test: disc-plate screening procedure, zone of inhibition; conditions: read-out: Zone Diameter
[12] = system: Streptococcus sp. (Group D); test: disc-plate screening procedure, zone of inhibition; conditions: read-out: Zone Diameter
[13] = system: Streptococcus pneumoniae; test: disc-plate screening procedure, zone of inhibition; conditions: read-out: Zone Diameter

## Cc1cccc(O)c1C(=O)OC(C)c1cccc2nc3c(C(=O)O)cccc3nc12 (stereo not drawn) [Antibiotic A-32256, 6-[1-[(2-hydroxy-6-methylbenzoyl)oxy]-ethyl]-1-phenazinecarboxylic acid]
[1]
  MIC: 16 µg/mL (≈ 39.8 µM)
[2]
  MIC: ≤ 0.5 µg/mL
[3]
  MIC: 0.25 µg/mL (≈ 0.621 µM)
[4]; B. thetaiotaomicron 1438
  MIC: 1.0 µg/mL (≈ 2.49 µM)
[4]; B. thetaiotaomicron 1900A
  MIC: 1.0 µg/mL (≈ 2.49 µM)
[5]
  MIC: 1.0 µg/mL (≈ 2.49 µM)
[6]; B. fragilis 2
  MIC: 1.0 µg/mL (≈ 2.49 µM)
[6]; B. fragilis 9
  MIC: 1.0 µg/mL (≈ 2.49 µM)
[6]; B. fragilis 62
  MIC: 1.0 µg/mL (≈ 2.49 µM)
[6]; B. fragilis 103
  MIC: 0.5 µg/mL (≈ 1.24 µM)
[6]; B. fragilis 104
  MIC: 1.0 µg/mL (≈ 2.49 µM)
[6]; B. fragilis 106
  MIC: 0.5 µg/mL (≈ 1.24 µM)
[6]; B. fragilis 107
  MIC: 2 µg/mL (≈ 4.97 µM)
[6]; B. fragilis 108
  MIC: 1.0 µg/mL (≈ 2.49 µM)
[6]; B. fragilis 110
  MIC: 0.5 µg/mL (≈ 1.24 µM)
[6]; B. fragilis 111
  MIC: 1.0 µg/mL (≈ 2.49 µM)
[6]; B. fragilis 112
  MIC: 0.5 µg/mL (≈ 1.24 µM)
[6]; B. fragilis 113
  MIC: 1.0 µg/mL (≈ 2.49 µM)
[6]; B. fragilis 1470
  MIC: 0.5 µg/mL (≈ 1.24 µM)
[6]; B. fragilis 1877
  MIC: 1.0 µg/mL (≈ 2.49 µM)
[6]; V. fragilis 1451 (so in the source)
  MIC: 2 µg/mL (≈ 4.97 µM)
[7]; Pc. asaccharolyticus 1302
  MIC: 2 µg/mL (≈ 4.97 µM)
[7]; Pc. asaccharolyticus 1344
  MIC: 2 µg/mL (≈ 4.97 µM)
[8]
  MIC: 8 µg/mL (≈ 19.9 µM)
[9]; Pc. magnus 1401
  MIC: 2 µg/mL (≈ 4.97 µM)
[9]; Pc. magnus 1421
  MIC: 0.5 µg/mL (≈ 1.24 µM)
[9]; Pc. magnus 1477
  MIC: 0.5 µg/mL (≈ 1.24 µM)
[10]; read-out: Zone Diameter, S. aureus 3055, benzylpenicillin-susceptible, 30 mcg/disc
  zone of inhibition at 30 µg/disc: 23 mm
[10]; read-out: Zone Diameter, S. aureus 3055, benzylpenicillin-susceptible, 300 mcg/disc
  zone of inhibition at 300 µg/disc: 26.2 mm
[10]; read-out: Zone Diameter, S. aureus 3074, benzylpenicillin-resistant, 30 mcg/disc
  zone of inhibition at 30 µg/disc: 10 mm
[10]; read-out: Zone Diameter, S. aureus 3074, benzylpenicillin-resistant, 300 mcg/disc
  zone of inhibition at 300 µg/disc: 12.2 mm
[10]; read-out: Zone Diameter, S. aureus 3130, methicillin-resistant, 30 mcg/disc
  zone of inhibition at 30 µg/disc: 25.8 mm
[10]; read-out: Zone Diameter, S. aureus 3130, methicillin-resistant, 300 mcg/disc
  zone of inhibition at 300 µg/disc: 30 mm
[11]
  zone of inhibition at 30 µg/disc: 11 mm
  zone of inhibition at 300 µg/disc: 13 mm
[12]
  zone of inhibition at 30 µg/disc: 18.2 mm
  zone of inhibition at 300 µg/disc: 21 mm
[13]
  zone of inhibition at 30 µg/disc: 14 mm
  zone of inhibition at 300 µg/disc: 16 mm
